In PubChem BioAssay (NCI):
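A five-concentration, 48-hour dose response in 96-well plates underlies each endpoint, interpolated linearly between surrounding concentrations. TGI marks complete inhibition of growth.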

Tests used:
Assay in all cases: NCI-60 cell line screen, 48 h
786-0 renal = system: 786-0 renal
A498 renal = system: A498 renal
A549 NSCLC = system: A549 NSCLC
ACHN renal = system: ACHN renal
BT-549 breast = system: BT-549 breast
CAKI-1 renal = system: CAKI-1 renal
CCRF-CEM leukemia = system: CCRF-CEM leukemia
COLO 205 colon = system: COLO 205 colon
DU-145 prostate = system: DU-145 prostate
EKVX NSCLC = system: EKVX NSCLC
HCC-2998 colon = system: HCC-2998 colon
HCT-116 colon = system: HCT-116 colon
HCT-15 colon = system: HCT-15 colon
HL-60(TB) leukemia = system: HL-60(TB) leukemia
HOP-62 NSCLC = system: HOP-62 NSCLC
HOP-92 NSCLC = system: HOP-92 NSCLC
HS 578T breast = system: HS 578T breast
HT29 colon = system: HT29 colon
IGROV1 ovarian = system: IGROV1 ovarian
K-562 leukemia = system: K-562 leukemia
KM12 colon = system: KM12 colon
LOX IMVI melanoma = system: LOX IMVI melanoma
M14 melanoma = system: M14 melanoma
MCF7 breast = system: MCF7 breast
MDA-MB-231 breast = system: MDA-MB-231 breast
MDA-MB-435 = system: MDA-MB-435
MDA-N = system: MDA-N
MOLT-4 leukemia = system: MOLT-4 leukemia
NCI-H226 lung = system: NCI-H226 lung
NCI-H23 lung = system: NCI-H23 lung
NCI-H460 lung = system: NCI-H460 lung
NCI/ADR-RES ovarian = system: NCI/ADR-RES ovarian
OVCAR-3 ovarian = system: OVCAR-3 ovarian
OVCAR-4 ovarian = system: OVCAR-4 ovarian
OVCAR-5 ovarian = system: OVCAR-5 ovarian
OVCAR-8 ovarian = system: OVCAR-8 ovarian
PC-3 prostate = system: PC-3 prostate
RPMI-8226 leukemia = system: RPMI-8226 leukemia
RXF 393 renal = system: RXF 393 renal
SF-268 CNS = system: SF-268 CNS
SF-295 CNS = system: SF-295 CNS
SF-539 CNS = system: SF-539 CNS
SK-MEL-28 melanoma = system: SK-MEL-28 melanoma
SK-MEL-5 melanoma = system: SK-MEL-5 melanoma
SK-OV-3 ovarian = system: SK-OV-3 ovarian
SN12C renal = system: SN12C renal
SNB-19 CNS = system: SNB-19 CNS
SNB-75 CNS = system: SNB-75 CNS
SR leukemia = system: SR leukemia
SW-620 colon = system: SW-620 colon
T-47D breast = system: T-47D breast
TK-10 renal = system: TK-10 renal
U251 CNS = system: U251 CNS
UACC-257 melanoma = system: UACC-257 melanoma
UACC-62 melanoma = system: UACC-62 melanoma
UO-31 renal = system: UO-31 renal
MALME-3M melanoma = system: MALME-3M melanoma
NCI-H522 lung = system: NCI-H522 lung
SK-MEL-2 melanoma = system: SK-MEL-2 melanoma

**Q.** Which results are given for c1cc(-c2csc(-c3ccsc3)c2)cs1?
**A.** TGI (786-0 renal): > 100 µM; TGI (A498 renal): > 100 µM; TGI (A549 NSCLC): > 100 µM; TGI (ACHN renal): > 100 µM; TGI (BT-549 breast): > 100 µM; TGI (CAKI-1 renal): > 100 µM; TGI (CCRF-CEM leukemia): > 100 µM; TGI (COLO 205 colon): > 100 µM; TGI (DU-145 prostate): > 100 µM; TGI (EKVX NSCLC): > 100 µM; TGI (HCC-2998 colon): > 100 µM; TGI (HCT-116 colon): > 100 µM; TGI (HCT-15 colon): > 100 µM; TGI (HL-60(TB) leukemia): > 100 µM; TGI (HOP-62 NSCLC): > 100 µM; TGI (HOP-92 NSCLC): > 100 µM; TGI (HS 578T breast): > 100 µM; TGI (HT29 colon): > 100 µM; TGI (IGROV1 ovarian): > 100 µM; TGI (K-562 leukemia): > 100 µM; TGI (KM12 colon): > 100 µM; TGI (LOX IMVI melanoma): > 100 µM; TGI (M14 melanoma): > 100 µM; TGI (MCF7 breast): 48.6 µM; TGI (MDA-MB-231 breast): > 100 µM; TGI (MDA-MB-435): > 100 µM; TGI (MDA-N): > 100 µM; TGI (MOLT-4 leukemia): > 100 µM; TGI (NCI-H226 lung): 83.2 µM; TGI (NCI-H23 lung): > 100 µM; TGI (NCI-H460 lung): > 100 µM; TGI (NCI/ADR-RES ovarian): > 100 µM; TGI (OVCAR-3 ovarian): > 100 µM; TGI (OVCAR-4 ovarian): > 100 µM; TGI (OVCAR-5 ovarian): > 100 µM; TGI (OVCAR-8 ovarian): > 100 µM; TGI (PC-3 prostate): > 100 µM; TGI (RPMI-8226 leukemia): > 100 µM; TGI (RXF 393 renal): > 100 µM; TGI (SF-268 CNS): > 100 µM; TGI (SF-295 CNS): > 100 µM; TGI (SF-539 CNS): > 100 µM; TGI (SK-MEL-28 melanoma): > 100 µM; TGI (SK-MEL-5 melanoma): > 100 µM; TGI (SK-OV-3 ovarian): > 100 µM; TGI (SN12C renal): > 100 µM; TGI (SNB-19 CNS): > 100 µM; TGI (SNB-75 CNS): > 100 µM; TGI (SR leukemia): > 100 µM; TGI (SW-620 colon): > 100 µM; TGI (T-47D breast): > 100 µM; TGI (TK-10 renal): > 100 µM; TGI (U251 CNS): > 100 µM; TGI (UACC-257 melanoma): > 100 µM; TGI (UACC-62 melanoma): > 100 µM; TGI (UO-31 renal): > 100 µM

**Q.** How did the TGI (786-0 renal) turn out when CC(C)(C)OC(=O)NC1CC=CCC1NC(=O)OC(C)(C)C (centres undefined) was run?
**A.** Its TGI is over 100 µM.

**Q.** What about the TGI (A498 renal) of the same molecule?
**A.** Its TGI is over 100 µM.

**Q.** What about the TGI (A549 NSCLC) of the same molecule?
**A.** Its TGI is over 100 µM.

**Q.** What about the TGI (ACHN renal) of the same molecule?
**A.** The TGI was over 100 µM.

**Q.** And the TGI (BT-549 breast)?
**A.** Its TGI is over 100 µM.

**Q.** What about the TGI (CAKI-1 renal) of the same molecule?
**A.** Its TGI is over 100 µM.

**Q.** And the TGI (CCRF-CEM leukemia)?
**A.** The TGI was over 100 µM.

**Q.** And the TGI (COLO 205 colon)?
**A.** The TGI was over 100 µM.

**Q.** What about the TGI (DU-145 prostate) of the same molecule?
**A.** The TGI was over 100 µM.

**Q.** And the TGI (HCC-2998 colon)?
**A.** Its TGI is over 100 µM.

**Q.** What about the TGI (HCT-116 colon) of the same molecule?
**A.** Its TGI is over 100 µM.

**Q.** And the TGI (HCT-15 colon)?
**A.** Its TGI is over 100 µM.

**Q.** What about the TGI (HL-60(TB) leukemia) of the same molecule?
**A.** The TGI was over 100 µM.

**Q.** What about the TGI (HOP-62 NSCLC) of the same molecule?
**A.** The TGI was over 100 µM.

**Q.** What about the TGI (HOP-92 NSCLC) of the same molecule?
**A.** Its TGI is over 100 µM.

**Q.** What about the TGI (HS 578T breast) of the same molecule?
**A.** Its TGI is over 100 µM.

**Q.** What about the TGI (HT29 colon) of the same molecule?
**A.** The TGI was over 100 µM.

**Q.** And the TGI (IGROV1 ovarian)?
**A.** The TGI was over 100 µM.

**Q.** And the TGI (K-562 leukemia)?
**A.** Its TGI is over 100 µM.

**Q.** What about the TGI (KM12 colon) of the same molecule?
**A.** Its TGI is over 100 µM.

**Q.** What about the TGI (LOX IMVI melanoma) of the same molecule?
**A.** Its TGI is over 100 µM.

**Q.** What about the TGI (M14 melanoma) of the same molecule?
**A.** Its TGI is over 100 µM.

**Q.** What about the TGI (MALME-3M melanoma) of the same molecule?
**A.** Its TGI is over 100 µM.

**Q.** And the TGI (MCF7 breast)?
**A.** Its TGI is over 100 µM.

**Q.** And the TGI (MDA-MB-231 breast)?
**A.** The TGI was over 100 µM.

**Q.** And the TGI (MDA-MB-435)?
**A.** Its TGI is over 100 µM.

**Q.** And the TGI (MDA-N)?
**A.** Its TGI is over 100 µM.

**Q.** What about the TGI (MOLT-4 leukemia) of the same molecule?
**A.** The TGI was over 100 µM.

**Q.** And the TGI (NCI-H226 lung)?
**A.** The TGI was over 100 µM.

**Q.** What about the TGI (NCI-H23 lung) of the same molecule?
**A.** Its TGI is over 100 µM.

**Q.** And the TGI (NCI-H460 lung)?
**A.** The TGI was over 100 µM.

**Q.** What about the TGI (NCI-H522 lung) of the same molecule?
**A.** The TGI was over 100 µM.

**Q.** What about the TGI (NCI/ADR-RES ovarian) of the same molecule?
**A.** The TGI was over 100 µM.

**Q.** And the TGI (OVCAR-3 ovarian)?
**A.** Its TGI is over 100 µM.

**Q.** What about the TGI (OVCAR-4 ovarian) of the same molecule?
**A.** The TGI was over 100 µM.

**Q.** And the TGI (OVCAR-5 ovarian)?
**A.** The TGI was over 100 µM.

**Q.** And the TGI (OVCAR-8 ovarian)?
**A.** Its TGI is over 100 µM.

**Q.** And the TGI (PC-3 prostate)?
**A.** Its TGI is over 100 µM.

**Q.** What about the TGI (RPMI-8226 leukemia) of the same molecule?
**A.** Its TGI is over 100 µM.

**Q.** What about the TGI (RXF 393 renal) of the same molecule?
**A.** Its TGI is over 100 µM.

**Q.** What about the TGI (SF-268 CNS) of the same molecule?
**A.** Its TGI is over 100 µM.

**Q.** What about the TGI (SF-295 CNS) of the same molecule?
**A.** Its TGI is over 100 µM.

**Q.** What about the TGI (SF-539 CNS) of the same molecule?
**A.** Its TGI is over 100 µM.

**Q.** And the TGI (SK-MEL-2 melanoma)?
**A.** The TGI was over 100 µM.

**Q.** What about the TGI (SK-MEL-28 melanoma) of the same molecule?
**A.** Its TGI is over 100 µM.

**Q.** What about the TGI (SK-MEL-5 melanoma) of the same molecule?
**A.** The TGI was over 100 µM.

**Q.** What about the TGI (SK-OV-3 ovarian) of the same molecule?
**A.** Its TGI is over 100 µM.

**Q.** What about the TGI (SN12C renal) of the same molecule?
**A.** Its TGI is over 100 µM.

**Q.** What about the TGI (SNB-19 CNS) of the same molecule?
**A.** The TGI was over 100 µM.

**Q.** And the TGI (SNB-75 CNS)?
**A.** Its TGI is over 100 µM.

**Q.** And the TGI (SR leukemia)?
**A.** Its TGI is over 100 µM.

**Q.** What about the TGI (SW-620 colon) of the same molecule?
**A.** The TGI was over 100 µM.

**Q.** What about the TGI (T-47D breast) of the same molecule?
**A.** The TGI was over 100 µM.

**Q.** What about the TGI (TK-10 renal) of the same molecule?
**A.** Its TGI is over 100 µM.

**Q.** What about the TGI (U251 CNS) of the same molecule?
**A.** The TGI was over 100 µM.

**Q.** And the TGI (UACC-257 melanoma)?
**A.** Its TGI is over 100 µM.

**Q.** What about the TGI (UACC-62 melanoma) of the same molecule?
**A.** Its TGI is over 100 µM.

**Q.** And the TGI (UO-31 renal)?
**A.** The TGI was over 100 µM.
